2 molecules from patent US20040072184A1 (priority 2003, published 2004) can be followed below.

For this experiment, the system named is SGK2. It counts as cell-based, human.

Consider `COC[C@@H]([C@H](O)[C@H](O)C(=O)NCC[C@H](C)c1nc(/C=C/C[C@@H]2O[C@]3(C[C@@H](O)[C@@H]2C)O[C@H]([C@H](C[C@H](O)[C@H](C)[C@H](O)[C@H](C)/C=C(C)/C(C)=C/C=C/C(C)=C\C#N)OC)[C@H](OP(=O)(O)O)C3(C)C)co1)N(C)C` [Calyculin A], for which the “CapK sub (CCPM1)” value turned out to be 59335 CCPM1, the “No-Substrate (CCPM1)” value was 0 CCPM1, the “PKB sub (CCPM1)” value stood at 92540 CCPM1 and the “SGK2 kinase activity (result in words)” value was “stimulated SGK2 kinase activity”.
For `C=C1[C@@H](O)[C@@H]2O[C@]3(CC[C@H](/C=C/[C@@H](C)[C@@H]4CC(C)=C[C@@]5(O[C@H](C[C@@](C)(O)C(=O)O)CC[C@H]5O)O4)O3)CC[C@H]2O[C@@H]1[C@@H](O)C[C@H](C)[C@H]1O[C@@]2(CCCCO2)CC[C@H]1C` [Okadaic Acid], the “CapK sub (CCPM1)” value worked out at 161553 CCPM1, the “No-Substrate (CCPM1)” value came out at 2078 CCPM1, the “PKB sub (CCPM1)” value was 132171 CCPM1 and the “SGK2 kinase activity (result in words)” value is on record as “stimulated SGK2 kinase activity”.
